Assay results from patent publication US8044022B2, “Hyaluronic acid binding peptides enhance host defense against pathogenic bacteria” (priority 2005, dated 2011).
Non-standard residues stand in square brackets, D forms with d. Residues, ends and D or L forms follow the SMILES beside them. No end group written: not given here.

Experiments:
Staphylococcus aureus = assay: Bacterial translocation through polarized keratinocyte cultures (Transwell); assay type: cell-based; details: 100 μg/ml; vs PBS or SCRM
P. multocida = assay: as above; assay type: cell-based, Pasteurella multocida; details: 100 μg/ml; vs PBS or SCRM
Protocol: (§1) Cell cultures: For the preparation of in vitro keratinocyte cultures, human primary OKP7 cells were derived from the oropharynx. Keratinocytes were seeded at 5×10^5 cells per well onto polycarbonate Transwell membrane supports (12 well plates, 3.0 μm pore size; Costar) or tissue culture treated plastic ware and cultured for 5-10 days at 37° C. with 5% humidified CO2 in cSFM medium with daily medium changes. Once confluent, the calcium concentration of the cSFM was increased to 1.2 mM and cells were cultured for 2 more days, before the integrity of the monolayer was assessed by measuring permeability to sodium fluorescein, and in some experiments, by measuring transepithelial electrical resistance.
(§2) Infection procedures: Keratinocyte layer cultures in Transwell inserts were inoculated in the upper chamber with GAS, S. equi, S. uberis, and P. multocida at a multiplicity of infection (MOI) of 1 bacterium per keratinocyte in the presence or absence of HABP01 or SCRM. Infected cultures were incubated at 37° C. with 5% CO2 for the desired time. In translocation experiments, Transwell inserts containing the keratinocytes were moved to new wells containing fresh medium every 2 hours to prevent overgrowth of bacteria that had translocated through the keratinocytes layer to the lower chamber. Bacterial translocation was quantified by culturing medium from the lower chamber at 2-hour intervals. […]

GAS [1] = assay: as above; assay type: cell-based, Group A Streptococcus; details: vs PBS or SCRM
Protocol: as §1
Infection procedures: Keratinocyte layer cultures in Transwell inserts were inoculated in the upper chamber with GAS, S. equi, S. uberis, and P. multocida at a multiplicity of infection (MOI) of 1 bacterium per keratinocyte in the presence or absence of HABP01 or SCRM. Infected cultures were incubated at 37° C. with 5% CO2 for the desired time. In translocation experiments, Transwell inserts containing the keratinocytes were moved to new wells containing fresh medium every 2 hours to prevent overgrowth of bacteria that had translocated through the keratinocytes layer to the lower chamber. Bacterial translocation was quantified by culturing medium from the lower chamber at 2-hour intervals.
Bacterial translocation studies were performed to assess the impact of HABP01 on bacterial paracellular translocation through polarized keratinocyte cultures.
Incubation of GAS in the presence of HABP33, HABP35 and HABP42, also delayed GAS translocation. At two hours after the addition of GAS to the keratinocytes, approximately 530 CFU of GAS were detected in the lower level in cultures treated with PBS or SCRM peptide.

GAS [2] = assay: Opsonophagocytic assay with human neutrophils; assay type: cell-based, Group A Streptococcus; details: 50 μg/ml, 2 hours incubation with human neutrophils, 10% absorbed human serum
Protocol: Encapsulated GAS are resistant to killing by neutrophils in opsonophagocytic assays in the absence of antibodies that bind the bacterial surface. HABPs binding to the bacterial surface may facilitate neutrophil cytotoxicity. Opsonophagocytic assays were performed wherein GAS were incubated with 50 μg/ml of SCRM, HABP01 or HABP35 and mixed with human neutrophils in medium containing 10% absorbed human serum. Aliquots (25 μl) for quantitative culture were withdrawn immediately after mixing neutrophil with GAS and after 2 hr incubation at 37° C. The log increase or decrease in CFU's was calculated. After 2 hours of incubation, there was about a 1.5 log increase in CFU's for GAS treated with PBS or SCRM.

[3] = test system: Wild Type GAS (HA encapsulated); assay: Fluorometry binding of FITC-conjugated peptide to encapsulated GAS; parameters: species or system Group A Streptococcus
Protocol: (§3) Bacterial strains: GAS strain 950771 is a moderately encapsulated M3 clinical isolate from a child with post-varicella necrotizing fasciitis and sepsis, and an isogenic capsule deficient mutant, 188, derived from 950771. GAS were grown in Todd-Hewitt broth (Difco) to mid-exponential phase OD650 of 0.15 at 37° C. for all experiments. Commercially available trypticase-soy agar medium supplemented with 5% vol/vol sheep blood (BAP)(PML Microbiologicals, British Columbia, Canada) were used for all plate cultures. S. equi s(ATCC 53185) and P. multocida (ATCC 11039) were purchased from ATCC and cultured as recommended. Briefly, S. equi was cultured in Todd-Hewitt broth and S. uberis and P. multocida were cultured in Brain heart infusion (Difco) to OD 650 of 0.15 at 37° C. Quantitative cultures were performed in parallel with each experiment to verify the multiplicity of infection (MOI) of the inoculum.
(§4) Binding of HABP to HA and HA-encapsulated bacteria: To assess whether HABP are able to associate specifically with the GAS capsule, bacteria were cultured to mid-log phase, for maximal HA capsule expression, and incubated with either 10 μg/ml of FITC-conjugated HABP01 or SCRM, with purified HA at 1 mg/ml, as a positive control, or an isogenic mutant strain of GAS deficient in HA capsule, as a negative control. A GAS-specific antibody was used to control for the number of bacteria per well.

[4] = Fluorometry binding of FITC-conjugated peptide to purified HA in well; parameters: species or system rooster
Protocol: Lyophilized synthetic peptides were resuspended in PBS pH7.4 prior to use in either in vitro or in vivo experiments. Fluorescein conjugation of HABP01 and SCRM was performed using 5,6 carboxyfluorescein, succinimidyl ester (5,6 FAM) (Molecular Probes, Portland, Oreg.) as per manufacturer's instructions and separated on a Sephadex G-25 column (Amersham, Piscataway, N.J.). Purified, high molecular weight rooster comb HA (Sigma-Aldrich, St Louis, Mo.) was used as a positive control for BP binding.
as §4

[5] = test system: GAS internalization by keratinocytes; assay: Bacterial internalization by keratinocyte monolayers; assay type: cell-based, Group A Streptococcus / human keratinocytes; details: 100 μg/ml, 4 hours
Protocol: Effect of HABP on bacterial internalization by keratinocytes. Encapsulated GAS are poorly internalized by keratinocytes. Yet in the presence of HABPs, intracellular encapsulated GAS are observed by microscopy. To quantify this internalization, keratinocyte monolayers were infected with HA-encapsulated bacteria in the presence of 100 μg/ml of either HABP01 or SCRM for 4 hours. Penicillin and gentamicin were added at 3 hours to kill extracellular bacteria and cells were harvested. Bacteria treated with HABP01 were internalized approximately 40-fold more efficiently than SCRM-treated or untreated samples, and at similar levels to those obtained with acapsular GAS. Internalization of acapsular GAS was unaffected by either peptide.

Acapsular GAS = assay: Fluorometry binding of FITC-conjugated peptide to capsule-deficient GAS; parameters: species or system Group A Streptococcus
Protocol: as §3, §4

S. equi = assay: Bacterial translocation through polarized keratinocyte cultures (Transwell); assay type: cell-based, Streptococcus equi; details: 100 μg/ml; vs PBS or SCRM
Protocol: as §1, §2

[6] = Surface plasmon resonance (Biacore T-100) binding of peptides to immobilized biotin-labeled hyaluronic acid; parameters: species or system rooster; details: SPR, biotin-HA immobilized on streptavidin chip
Protocol: Surface plasmon resonance spectroscopy (SPR) studies were performed on a Biacore T-100 to quantitate the binding of peptides to hyaluronic acid (HA). Biotin-labeled hyaluronic acid (Sigma B1557, hyaluron sodium salt from rooster comb with >97% purity, average approximately 850 kDd, 98% labeled) was immobilized on one of the four flow cells of a streptavidin-coated series S sensor chip SA. […] Peptides were then injected across the surface and the degree of binding interaction is measured in response units (RU).
The average net binding for HABP35 to HA was 399±77 RU or significant binding. The other HA binding peptides also had positive RU values.

human red blood cells = assay: Hemolytic activity, hemoglobin release from red blood cells (12 hour protocol)
Protocol: Determination of hemolytic activity is measured through the release of hemoglobin from human red blood cells as measured spectrophotometrically.
Briefly, a dilution series of the peptide was prepared in two-fold dilutions from 512 to 1 μg/mL. Triplicate determinations of each peptide concentration were added to 1% human red blood cells and incubated for 12 hours at 37° C. The negative control for hemolysis consisted of 1% red blood cells with no peptide added. The positive control for hemolysis was 1% red blood cells in 0.15M NH4Cl. Hemoglobin release was measured at an absorbance of 562 nm.
Percent hemolysis is calculated as the ratio of the optical density (OD) of the peptide relative to the OD of the positive control for hemolysis.

S. aureus strain PS80 = assay: Mouse model of S. aureus surgical wound infection; assay type: in vivo, C57BL6 mice; details: 100 μg into wound at time of challenge with 10^2 CFU; 3 days later
Protocol: Bacterial strains. S. aureus strain PS80 (serotype 8) was obtained from the American Type Culture collection (#27700) and is a potent inducer of intraabdominal abscess formation. S. aureus COL is a methicillin resistant strain that produces a serotype 5 capsule. Staphylococci were cultivated for 24 h at 37° C. on Columbia agar (Difco Laboratories, Detroit, Mich.) supplemented with 2% NaCl.
Mouse model of S. aureus wound infection. Mice (C57BL6, male, 6-8 wk old) were obtained from Jackson Laboratories (Bar Harbor, Me.). Groups of mice (N=4/group/experiment) were anesthetized with 100 mg/kg ketamine and 10 mg/kg xylazine, their right thighs were shaved, and the surgical area was disinfected with iodine and 70% ethanol. An incision was made in the skin to expose the thigh muscle, and a 1-cm incision was made with a scalpel into the thigh muscle to the depth of the bone. The muscle was then closed with one 4-0 silk suture, and 10 μl of a S. aureus suspension ranging in dose from 10^2 to 10^4 CFU was introduced into the incision under the suture. The skin was closed with four additional Prolene sutures. The mice were euthanized at 3 days post-surgery. The wounded muscle tissue was excised, weighed (˜0.08 g), and homogenized in 1 ml of tryptic soy broth. Serial dilutions of the homogenates were plated in duplicate and results were expressed as CFU/g tissue. Peptides were administered to animals in two ways. For most experiments, HABPs were solubilized in PBS and administered with a pipet into the wound in a 10 μl volume following challenge with bacteria. A 100 μg dose was used for most experiments. For therapeutic studies, peptide was administered via a 1 ml tuberculin syringe fitted with a 25 gauge needle in a 0.25 ml volume injected into the thigh muscle containing the wound distal from the incision site.
Gross pathology and histologic analysis of host response. […] Histological examination of these wounds confirmed these findings. Muscle tissue was harvested from mice at designated intervals post-surgery, fixed in 10% buffered formalin, and mounted in paraffin; 5 to 6-μm sections were cut and stained with hematoxylin and eosin for microscopic examination. […] The cellular infiltrate was primarily comprised of PMNs and fibrin.
Statistical analyses. All animal experiments were performed at least two times and the data pooled. Comparison of S. aureus CFU/g tissue was made by the Welch modification of the unpaired Student t test (InStat, GraphPad Software, San Diego, Calif.).

[7] = fluorometry, HABP35 also confocal microscopy, data not shown

STMMSRSHKTRSHHV [HABP01]
reduction in translocation of Staphylococcus aureus (Staphylococcus aureus): 73% | reduction in translocation of P. multocida (P. multocida): 98% | reduction in the translocation of GAS across an intact keratinocyte culture (GAS [1]; 100 μg/ml, treatment of keratinocytes or bacteria): 75-85% | log increase in CFU's (GAS [2]): over 1 log | binding to encapsulated GAS (in words) [3, 7]: bound specifically | Relative binding ([3]; substrate in well: Wild Type GAS, 10 μg/ml FITC-conjugated peptide): 11840 ± 230 relative fluorescent units | binding to purified HA (in words) ([4]; fluorometry): bound specifically | Relative binding ([4]; substrate in well: HA (1 mg/ml), 10 μg/ml FITC-conjugated peptide): 9640 ± 360 relative fluorescent units | internalization of HA-encapsulated bacteria by keratinocytes relative to SCRM-treated or untreated samples [5]: approximately 40 fold | binding to unencapsulated GAS (in words) (Acapsular GAS; [7]): not to unencapsulated GAS | Relative binding (Acapsular GAS; substrate in well: Acapsular GAS, 10 μg/ml FITC-conjugated peptide): 1940 ± 70 relative fluorescent units | reduction in translocation of S. equi (S. equi): 98%

VSKLRSQLVKRKQN (VSKLRSQLVKRKQN-NH2) [HABP33]
decrease in the numbers of translocating GAS bacteria (GAS [1]; two hours after addition of GAS): ~90%

CC[C@H](C)[C@H](NC(=O)CN)C(=O)NCC(=O)N[C@@H](C)C(=O)N[C@H](C(=O)N[C@@H](CC(C)C)C(=O)N[C@@H](CCCCN)C(=O)N[C@H](C(=O)N[C@@H](CC(C)C)C(=O)N[C@H](C(=O)N[C@H](C(=O)NCC(=O)N[C@@H](CC(C)C)C(=O)N1CCC[C@H]1C(=O)N[C@@H](C)C(=O)N[C@@H](CC(C)C)C(=O)N[C@H](C(=O)N[C@@H](CO)C(=O)N[C@@H](Cc1c[nH]c2ccccc12)C(=O)N[C@H](C(=O)N[C@@H](CCCCN)C(=O)N[C@@H](CCCNC(=N)N)C(=O)N[C@@H](CCCCN)C(=O)N[C@@H](CCCNC(=N)N)C(=O)N[C@@H](CCC(N)=O)C(=O)N[C@@H](CCC(N)=O)C(N)=O)[C@@H](C)CC)[C@@H](C)CC)[C@@H](C)O)[C@@H](C)O)C(C)C)C(C)C [Melittin]
average net binding to HA [6]: −503±5 RU | concentration giving levels of hemolysis comparable to HABP35 at 512 μg/mL (human red blood cells; 1% human red blood cells, 12 hours): less than 1 μg/mL | potency as a hemolytic agent relative to HABP35 (human red blood cells; comparison with HABP35): more than 500 times

CC[C@H](C)[C@H](NC(=O)[C@H](CCCCN)NC(=O)[C@H](CCC(N)=O)NC(=O)[C@H](CCCCN)NC(=O)[C@@H](N)CC(C)C)C(=O)N[C@@H](CCCCN)C(=O)N[C@@H](Cc1c[nH]cn1)C(=O)N[C@H](C(=O)N[C@H](C(=O)N[C@@H](CCCCN)C(=O)N[C@@H](CC(C)C)C(=O)N[C@@H](CCCCN)C(=O)N[C@H](C(=O)N[C@H](C(=O)N[C@H](C(=O)N[C@@H](CCCCN)C(=O)N[C@@H](CC(C)C)C(=O)N[C@@H](CCCNC(=N)N)C(=O)N[C@@H](CO)C(=O)N[C@@H](CCC(N)=O)C(=O)N[C@@H](CC(C)C)C(=O)N[C@H](C(=O)N[C@@H](CCCCN)C(=O)N[C@@H](CCCNC(=N)N)C(=O)N[C@@H](CCCCN)C(=O)N[C@@H](CCC(N)=O)C(=O)N[C@@H](CC(N)=O)C(N)=O)C(C)C)C(C)C)C(C)C)C(C)C)C(C)C)C(C)C [HABP35] (H-LKQKIKHVVKLKVVVKLRSQLVKRKQN-NH2)
hemolytic activity (human red blood cells; highest concentration tested, 512 μg/mL, 1% human red blood cells, 12 hours, 37° C.): minor hemolytic activity

STMMSRSHKTRSHHV (all d isomers) ([dS][dT][dM][dM][dS][dR][dS][dH][dK][dT][dR][dS][dH][dH][dV]-NH2) [HABP42]
bacterial burden at the wound site compared with PBS (S. aureus strain PS80): decrease in bacterial burden
